The target of experiment [1] is T1, Recombinant STAT3 protein (STAT3(G127-I722)) (Homo sapiens, UniProt P40763).
T1 construct: Recombinant STAT3 protein (STAT3(G127-I722))
The experiment in a line: STAT3 Fluorescence Polarization (FP) Assay. The experiment is classed as binding. Conditions: STAT3(G127-I722) 25 nM, probe 5-FAM-GpYLPQTV-NH2 2 nM, 45-minute incubation. The protocol: STAT3 Fluorescence Polarization (FP) Assay
An FP assay was developed to determine IC50 values for test substances. Recombinant STAT3 protein (STAT3(G127-I722)) at 25 nM was combined with a fluorescently labeled, phosphotyrosine peptide probe (5-FAM-GpYLPQTV-NH2) at 2 nM in FP buffer (10 mM HEPES pH 7.4, 50 mM NaCl, 1 mM EDTA, 0.05% Tween 20.2 mM DTT). 50 μL of STAT3-probe mixture was added to serial diluted compounds in black, 96-well plates (Greiner BioOne 655076) to a final concentration of 1% DMSO. Reaction components were mixed, and FP was measured after 45-minute incubation at room temperature using a Tecan Spark multimode plate reader. FP signal (mP) was plotted against the log concentration of the test substances and IC50 values were calculated by nonlinear regression analysis using GraphPad Prism software. For STAT3 FP assay, A=≤100 nM; B=>100-1000 nM; C=>1-10 μM; and D=>10 μM.
Background: Fluorescence polarisation rises when a labelled molecule tumbles more slowly, as on binding a larger partner.

Experiment [2] has as its target T2, Recombinant STAT6 protein (STAT6(W123-T658)) (Homo sapiens, UniProt P42226).
T2 construct: Recombinant STAT6 protein (STAT6(W123-T658))
T2 sequence (P42226 123-658): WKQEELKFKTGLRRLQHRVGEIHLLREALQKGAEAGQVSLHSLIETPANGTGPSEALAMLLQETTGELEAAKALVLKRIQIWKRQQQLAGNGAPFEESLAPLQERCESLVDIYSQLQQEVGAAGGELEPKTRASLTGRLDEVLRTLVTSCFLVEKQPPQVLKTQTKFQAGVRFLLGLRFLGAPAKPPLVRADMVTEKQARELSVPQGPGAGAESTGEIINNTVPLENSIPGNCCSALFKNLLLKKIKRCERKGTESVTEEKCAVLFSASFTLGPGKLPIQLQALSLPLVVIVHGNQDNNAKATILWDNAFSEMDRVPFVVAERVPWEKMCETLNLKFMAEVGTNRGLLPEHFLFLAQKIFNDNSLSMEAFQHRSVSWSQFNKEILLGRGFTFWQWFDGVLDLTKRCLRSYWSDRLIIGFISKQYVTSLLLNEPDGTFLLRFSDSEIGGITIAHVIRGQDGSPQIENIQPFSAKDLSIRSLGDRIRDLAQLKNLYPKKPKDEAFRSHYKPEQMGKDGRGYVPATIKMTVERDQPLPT
The experiment in a line: STAT6 Fluorescence Polarization (FP) Assay. Format: binding. Conditions: STAT6(W123-T658) 250 nM, probe 5-FAM-ApYKPFQDLI-NH2 2 nM, 45-minute incubation. The protocol:
STAT6 Fluorescence Polarization (FP) Assay
An FP assay was developed to determine IC50 values for test substances. Recombinant STAT6 protein (STAT6(W123-T658)) at 250 nM was combined with a fluorescently labeled, phosphotyrosine peptide probe (5-FAM-ApYKPFQDLI-NH2) at 2 nM in FP buffer (10 mM HEPES pH 7.4, 50 mM NaCl, 1 mM EDTA, 0.05% Tween 20.2 mM DTT). 50 μL of STAT6-probe mixture was added to serial diluted compounds in black, 96-well plates (Greiner BioOne 655076) to a final concentration of 1% DMSO. Reaction components were mixed, and FP was measured after 45-minute incubation at room temperature using a Tecan Spark multimode plate reader. FP signal (mP) was plotted against the log concentration of the test substances and IC50 values were calculated by nonlinear regression analysis using GraphPad Prism software. For STAT6 FP assay, A=≤300 nM; B=>300-3000 nM; C=>3-30 μM; and D=>30 μM.

In patent US20250179103A1, “6-OXODECAHYDROPYRROLO[1,2-A][1,5]DIAZOCINE AND 6-OXODECAHYDRO-4H-PYRROLO[2,1-D][1,5]THIAZOCINE DERIVATIVES AS STAT3 AND STAT6 MODULATORS FOR THE TREATMENT OF CANCER AND INFLAMMATORY CONDITIONS” (Recludix Pharma, Inc., priority 2022, published 2025) one finds IC50 data, which are given here for 13 compounds.

SMILES strings stand for the structures.

In general, IC50 refers to the midpoint of a concentration-inhibition curve.

T1 sequence (P40763 127-722): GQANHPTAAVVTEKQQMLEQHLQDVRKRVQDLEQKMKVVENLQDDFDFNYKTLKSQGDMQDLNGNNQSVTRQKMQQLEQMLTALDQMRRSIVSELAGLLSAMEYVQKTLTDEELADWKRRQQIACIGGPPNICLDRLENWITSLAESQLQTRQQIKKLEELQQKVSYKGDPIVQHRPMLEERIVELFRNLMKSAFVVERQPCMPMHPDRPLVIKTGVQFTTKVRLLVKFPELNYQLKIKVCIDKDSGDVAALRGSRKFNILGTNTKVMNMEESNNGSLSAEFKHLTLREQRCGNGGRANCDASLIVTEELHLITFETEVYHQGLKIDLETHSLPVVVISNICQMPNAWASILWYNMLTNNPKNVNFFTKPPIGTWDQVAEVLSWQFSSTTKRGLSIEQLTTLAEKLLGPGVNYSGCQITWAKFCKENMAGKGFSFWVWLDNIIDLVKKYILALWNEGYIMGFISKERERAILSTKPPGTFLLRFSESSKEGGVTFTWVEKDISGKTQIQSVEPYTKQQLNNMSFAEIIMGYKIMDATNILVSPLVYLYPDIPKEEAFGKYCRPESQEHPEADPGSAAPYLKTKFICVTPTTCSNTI

Turning to `CC(=O)N1CC[C@H]2CC[C@@H](C(=O)N(C)c3ccccc3)N2C(=O)[C@@H](NC(=O)/C=C/c2cccc(C(F)(F)P(=O)(O)O)c2)C1` [Compound 51, ((3-((E)-3-(((5S,8S,10aR)-3-acetyl-8-(methyl(phenyl)carbamoyl)-6-oxodecahydropyrrolo[1,2-a][1,5]diazocin-5-yl)amino)-3-oxoprop-1-en-1-yl)phenyl)difluoromethyl)phosphonic acid], the IC50 in experiment [1] is > 10 µM; in experiment [2] it was 3 to 30 µM.
Taken in the same sequence, the figures for `Cc1ccc2[nH]nc(C(=O)N3CC[C@H]4CC[C@@H](C(=O)N(C)C5CC5)N4C(=O)[C@@H](NC(=O)c4ccc5ccc(C(F)(F)P(=O)(O)O)cc5c4)C3)c2c1` [Compound 270, ((7-(((5S,8S,10aR)-8-(cyclopropyl(methyl)carbamoyl)-3-(5-methyl-1H-indazole-3-carbonyl)-6-oxodecahydropyrrolo[1,2-a][1,5]diazocin-5-yl)carbamoyl)naphthalen-2-yl)difluoromethyl)phosphonic acid] were 1 to 10 µM and ≤ 0.3 µM.
In the same order, the values of `CC(=O)N1CC[C@H]2CC[C@@H](C(=O)N(C)c3ccc4oncc4c3)N2C(=O)[C@@H](NC(=O)c2cc3cc(C(F)(F)P(=O)(O)O)ccc3s2)C1` [Compound 49, ((2-(((5S,8S,10aR)-3-acetyl-8-(benzo[d]isoxazol-5-yl(methyl)carbamoyl)-6-oxodecahydropyrrolo[1,2-a][1,5]diazocin-5-yl)carbamoyl)benzo[b]thiophen-5-yl)difluoromethyl)phosphonic acid] are 1 to 10 µM and 3 to 30 µM.
In the same order, the values of `CC(=O)N1CC[C@H]2CC[C@@H](C(=O)N3CCC[C@H]3Cc3ccccc3)N2C(=O)[C@@H](NC(=O)c2ccc3ccc(C(F)(F)P(=O)(O)O)cc3c2)C1` [Compound 200, ((7-(((5S,8S,10aR)-3-acetyl-8-((S)-2-benzylpyrrolidine-1-carbonyl)-6-oxodecahydropyrrolo[1,2-a][1,5]diazocin-5-yl)carbamoyl)naphthalen-2-yl)difluoromethyl)phosphonic acid] are 1 to 10 µM and 0.3 to 3 µM.
Take `CC(=O)N1CC[C@H]2CC[C@@H](C(=O)N3CC(c4cn[nH]c4)[C@@H](C#N)C3)N2C(=O)[C@@H](NC(=O)c2cc3cc(C(F)(F)P(=O)(O)O)ccc3s2)C1` (relative stereo) [Compound 141, ((2-(((5S,8S,10aR)-3-acetyl-8-((rel-trans)-3-cyano-4-(1H-pyrazol-4-yl)pyrrolidine-1-carbonyl)-6-oxodecahydropyrrolo[1,2-a][1,5]diazocin-5-yl)carbamoyl)benzo[b]thiophen-5-yl)difluoromethyl)phosphonic acid]: the IC50 in experiment [1] is 1 to 10 µM; in experiment [2] it was 0.3 to 3 µM.
`COc1ccc2c(C(=O)N3CC[C@H]4CC[C@@H](C(=O)N5CCOCC5)N4C(=O)[C@@H](NC(=O)c4ccc5ccc(C(F)P(=O)(O)O)cc5c4)C3)noc2c1` (stereo partly drawn) [Compound 363, (fluoro(7-(((5S,8S,10aR)-3-(6-methoxybenzoyl[d]isoxazole-3-carbonyl)-8-(morpholine-4-carbonyl)-6-oxodecahydropyrrolo [1,2-a][1,5]diazocin-5-yl)carbamoyl)naphthalen-2-yl)methyl)phosphonic acid]: the half-inhibitory concentration (IC50) in experiment [1] is > 10 µM; in experiment [2] it was ≤ 0.3 µM.
In the same order, the values of `O=C(N[C@H]1CN(C(=O)Cc2ccccc2)CC[C@H]2CC[C@@H](C(=O)Nc3ccccc3-c3ccccc3)N2C1=O)c1cc2cc(C(F)(F)P(=O)(O)O)ccc2[nH]1` [Compound 265, ((2-(((5S,8S,10aR)-8-([1,1′-biphenyl]-2-ylcarbamoyl)-6-oxo-3-(2-phenylacetyl)decahydropyrrolo[1,2-a][1,5]diazocin-5-yl)carbamoyl)-1H-indol-5-yl)difluoromethyl)phosphonic acid] are 1 to 10 µM and 0.3 to 3 µM.
On to `Cc1ccc2[nH]nc(C(=O)N3CC[C@H]4CC[C@@H](C(=O)N(C)C)N4C(=O)[C@@H](NC(=O)c4ccc5ccc(C(F)(F)P(=O)(O)O)cc5c4)C3)c2c1` [Compound 271, ((7-(((5S,8S,10aR)-8-(dimethylcarbamoyl)-3-(5-methyl-1H-indazole-3-carbonyl)-6-oxodecahydropyrrolo[1,2-a][1,5]diazocin-5-yl)carbamoyl)naphthalen-2-yl)difluoromethyl)phosphonic acid], for which the results for the IC50 in experiment [1] and in experiment [2] were 1 to 10 µM and ≤ 0.3 µM, respectively.
Taken in the same sequence, the figures for `CC(=O)N1CC[C@H]2CC[C@@H](C(=O)N3CC(c4ccc(=O)[nH]c4)[C@@H](C#N)C3)N2C(=O)[C@@H](NC(=O)c2cc3cc(C(F)(F)P(=O)(O)O)ccc3s2)C1` (relative stereo) [Compound 146, ((2-(((5S,8S,10aR)-3-acetyl-8-((rel-trans)-3-cyano-4-(6-oxo-1,6-dihydropyridin-3-yl)pyrrolidine-1-carbonyl)-6-oxodecahydropyrrolo[1,2-a][1,5]diazocin-5-yl)carbamoyl)benzo[b]thiophen-5-yl)difluoromethyl)phosphonic acid] were 0.1 to 1 µM and 0.3 to 3 µM.
In the same order, the values of `CC(=O)N1CC[C@H]2CC[C@@H](C(=O)N(C)c3ccc4nnccc4c3)N2C(=O)[C@@H](NC(=O)c2ccc3ccc(C(F)(F)P(=O)(O)O)cc3n2)C1` [Compound 118, ((2-(((5S,8S,10aR)-3-acetyl-8-(cinnolin-6-yl(methyl)carbamoyl)-6-oxodecahydropyrrolo[1,2-a][1,5]diazocin-5-yl)carbamoyl)quinolin-7-yl)difluoromethyl)phosphonic acid] are > 10 µM and 0.3 to 3 µM.
Taken in the same sequence, the figures for `CC(=O)N1CC[C@H]2CC[C@@H](C(=O)Nc3ccc4onc(C)c4c3)N2C(=O)[C@@H](NC(=O)c2cc3cc(C(F)(F)P(=O)(O)O)ccc3s2)C1` [Compound 68, ((2-(((5S,8S,10aR)-3-acetyl-8-((3-methylbenzo[d]isoxazol-5-yl)carbamoyl)-6-oxodecahydropyrrolo[1,2-a][1,5]diazocin-5-yl)carbamoyl)benzo[b]thiophen-5-yl)difluoromethyl)phosphonic acid] were 0.1 to 1 µM and 0.3 to 3 µM.
On to `CCC(=O)NCCCN(C)C(=O)[C@@H]1CC[C@@H]2CCN(C(C)=O)C[C@H](NC(=O)/C=C(\C)c3ccc(C(F)(F)P(=O)(O)O)cc3)C(=O)N21` [Compound 25, ((4-((E)-4-(((5S,8S,10aR)-3-acetyl-8-(methyl(3-propionamidopropyl)carbamoyl)-6-oxodecahydropyrrolo[1,2-a][1,5]diazocin-5-yl)amino)-4-oxobut-2-en-2-yl)phenyl)difluoromethyl)phosphonic acid], for which the IC50 in experiment [1] was > 10 µM; in experiment [2] it was 3 to 30 µM.
In the same order, the values of `CC(=O)N1CC[C@H]2CC[C@@H](C(=O)Nc3c(C)cc(-c4ccccc4)cc3C)N2C(=O)[C@@H](NC(=O)c2cc3cc(C(F)(F)P(=O)(O)O)ccc3s2)C1` [Compound 44, ((2-(((5S,8S,10aR)-3-acetyl-8-((3,5-dimethyl-[1,1′-biphenyl]-4-yl)carbamoyl)-6-oxodecahydropyrrolo[1,2-a][1,5]diazocin-5-yl)carbamoyl)benzo[b]thiophen-5-yl)difluoromethyl)phosphonic acid] are 0.1 to 1 µM and 3 to 30 µM.
